Experiment [1] concerns LL-37. Put plainly: LL-37 expression by OBA9 cells with Sepharose-coupled benzoic acid isomers. Format: cell-based, human. As to conditions: isomer coupled to NHS-activated Sepharose gel with EDC. An excerpt:
In order to investigate the structure-function relationship underlying EGCG-mediated induction of LL-37 from human gingival epithelial cell line OBA9, different isomers of benzoic acids are examined for their effects on the LL-37 expression by OBA9 cells. Each isomer of benzoic acids is coupled to NHS-activated Sepharose gel (Pierce) using a cross-linker, 1-Ethyl-3-[3-dimethylaminopropyl]carbodiimide (EDC, Pierce). The isomers of benzoic acids include 1) 2,6-di-hydroxy benzoic acid, 2) 2,3,4-tri-hydroxy benzoic acids, 3) 3,4,5-tri-hydroxy benzoic acids, and 4) 2,4,6-tri-hydroxy benzoic acids.

Experiment [2] deals with LL-37. In words: ELISA of LL-37 induction from OBA9 cells. It counts as cell-based, human. As to conditions: for induction of LL-37 expression: in the absence of EGCG; for induction of LL-37 (ELISA): 20 ug/ml. The method, then: (§1) Using ELISA systems to detect LL-37 (Forsyth in-house) and hBD2 (Peprotech), 33 natural compounds (20 ug/ml) are examined for their ability to induce LL-37 and hBD2 from OBA9 cells. Although the sensitivity of the hBD2 ELISA is higher than that of LL-37 ELISA (10 pg/ml vs 1 ng/ml, respectively), the induction of LL-37 is more prominent than hBD2 (FIG. 2 A&B, LL-37; C&D, hBD2). […] Bactericidal effects of LL-37 and hBD2 are, in general, potent.
The Trihydroxybenzoate Derivatives of the Invention and rosemarinic acid, courmarin, catechin gallate, epicatechin gallate, epigallocatechin, and tannic acid are tested to induce LL-37 from OBA9 cells in the absence of EGCG.
On the technique in general: ELISA stands for enzyme-linked immunosorbent assay.

Experiment [3] relates to Actinobacillus actinomycetemcomitans Y4. Put plainly: Bactericidal effect of culture supernatant of treated OBA9 cells. As to conditions: supernatant of OBA9 treated at 20 ug/ml; compared with non-treated, catechin- and 2,4-dihydroxy benzoic acid-treated supernatant. It counts as cell-based. The method, then:
The culture supernatant isolate from OBA9 is treated with 1) EGCG, 2) catechin, 3) 2,4-dihydroxy benzoic acid, and 4) 3,4,5-tri-hydroxy benzoic acid (20 ug/ml, respectively) and examined for their bactericidal effects on Actinobacillus actinomycetemcomitans Y4 (Aa Y4).

Another experiment deals with hBD2. Put plainly: ELISA of hBD2 induction from OBA9 cells. It counts as cell-based, human. As to conditions: 20 ug/ml. The method, then: as §1
Experiment [4] deals with LL-37 mRNA. In words: LL-37 mRNA level in human lung carcinoma cell line A549. It counts as cell-based. As to conditions: A549 cells. The method, then: (§2) Both LL-37 and hBD2 mRNA expression in OBA9 cells are induced after a 4-hour exposure to green tea polyphenol extract, Teaflan 90S (EGCG 50%, ECG 13%), and purified EGCG (95% pure, SIGMA) at concentrations of 0.1, 1.0 and 10 ug/ml. EGCG increases the production of LL-37 and hBD2 at the mRNA level in the human gingival epithelial cell line OBA9 (FIG. 1) as well as the human lung carcinoma cell line A549.

Experiment [5] concerns LL-37 mRNA. In words: RT-PCR of LL-37 mRNA in cheek epithelial cells after mouthwash. Format: in vivo, human. As to conditions: mouthwash with 40 ug/ml, after 5 minutes. From the text: (§3) Cheek epithelium is utilized for monitoring LL-37 mRNA and protein expression to determine if Trihydroxybenzoate Derivatives of the Invention can induce LL-37 in vivo. […] The isolated cheek cells are also subjected to Western blot analysis for protein expression of LL-37 by cheek epithelium using anti-LL-37 monoclonal antibody. The expression of both the proform (18 kD, also termed as hCAP18) and secreted form (4.5 kD) of LL-37 (12) in cheek epithelial cells is induced by Trihydroxybenzoate Derivatives of the Invention (e.g., EGCG (95% SIGMA), or by EGCG (90% Teavigo)).

In experiment [6] the test system is LL-37 mRNA. In words: LL-37 mRNA expression in human gingival epithelial cell line OBA9. As to conditions: OBA9 cells, 4-hour exposure, 0.1, 1.0 and 10 ug/ml. It counts as cell-based. The method, then: as §2
The test system of experiment [7] is hBD2 mRNA. Put plainly: hBD2 mRNA expression in human gingival epithelial cell line OBA9. It counts as cell-based. As to conditions: OBA9 cells, 4-hour exposure, 0.1, 1.0 and 10 ug/ml. The method, then:
as §2

The subject of experiment [8] is hBD2 mRNA. In words: hBD2 mRNA level in human lung carcinoma cell line A549. As to conditions: A549 cells. It counts as cell-based. The method, then: as §2
In experiment [9] the test system is LL-37. Put plainly: Western blot of LL-37 protein in cheek epithelial cells. It counts as in vivo, human. As to conditions: Western blot with anti-LL-37 monoclonal antibody.
Excerpt: as §3

The text below walks through data of patent publication US20100330070A1, “Methods Of Making An Antibody And Compositions Thereof” (priority 2009, published 2010).

As for `O=C(O)c1ccc(O)c(O)c1O` [2,3,4-tri-hydroxy benzoic acids, 2,3,4-trihydroxybenzoic acid], the “induction of LL-37 expression by OBA9 cells” value (“induction … by OBA9 cells” for short) in the experiment on LL-37 [1] was “show the induction”.

Consider `O=C(/C=C/c1ccc(O)c(O)c1)O[C@H](Cc1ccc(O)c(O)c1)C(=O)O` [Rosemarinic acid], for which, in the experiment on LL-37 [2], the “induction of LL-37 expression” value is “little or no induction”.

`O=C(O)c1cc(O)c(O)c(O)c1` [gallic acid, 3,4,5-trihydroxybenzoic acid]: the “induction of LL-37 expression” value with LL-37 [2] is given as “more potent than 3,4,-dihydroxy benzoate”. Further, in the experiment with LL-37 [1], the “induction … by OBA9 cells” value was “show the induction”. The “bactericidal effects of culture supernatant on Aa Y4” value in experiment [3] is given as “more bactericidal effects than control”.

Regarding Poly IC, the “induction of hBD2 (ELISA)” value with hBD2 is reported as “minimal induction activities”. The “induction of LL-37 (ELISA)” value in the experiment with LL-37 [2] is on record as “induced”.

Take `O=C(O)c1c(O)cc(O)cc1O` [2,4,6-tri-hydroxy benzoic acids]: the “induction … by OBA9 cells” value in the experiment on LL-37 [1] was “not”.

Regarding `CCCCCCCCCCCCCC(=O)O[C@@H]1[C@@H](C)[C@@]2(O)[C@@H](C=C(CO)C[C@]3(O)C(=O)C(C)=C[C@@H]23)[C@@H]2C(C)(C)[C@]12OC(C)=O` [PMA], the “induction of hBD2 (ELISA)” value in the experiment with hBD2 is on record as “minimal induction activities”. In the experiment on LL-37 [2], the “induction of LL-37 (ELISA)” value was “induced”.

Regarding `O=c1ccc2ccccc2o1` [courmarin], in the experiment with LL-37 [2], the “induction of LL-37 expression” value is “little or no induction”.

As for `O=C(O)c1c(O)cccc1O` [2,6-di-hydroxy benzoic acids, 2,6-di-hydroxy benzoic acid], the “induction … by OBA9 cells” value with LL-37 [1] was “not”.

Consider `O=C(O[C@@H]1Cc2c(O)cc(O)cc2O[C@@H]1c1cc(O)c(O)c(O)c1)c1cc(O)c(O)c(O)c1` [EGCG], for which the “production of LL-37 at the mRNA level” value with LL-37 mRNA [4] was “increases”. Besides, the “LL-37 mRNA expression by cheek epithelial cells” value in the experiment with LL-37 mRNA [5] was “up-regulated”. The “LL-37 mRNA expression” value in the experiment with LL-37 mRNA [6] is reported as “induced”. Also, the “hBD2 mRNA expression” value in the experiment on hBD2 mRNA [7] is reported as “induced”. The “production of hBD2 at the mRNA level” value in the experiment with hBD2 mRNA [8] is on record as “increases”. Further, the “expression of proform (18 kD) and secreted form (4.5 kD) of LL-37 in cheek epithelial cells” value in the experiment on LL-37 [9] is on record as “induced”. In addition, the “bactericidal effects of culture supernatant on Aa Y4” value in experiment [3] was “more bactericidal effects than control”.
